In this assay the test system is P388 leukemia ip, CD2F1 mice, survival T/C. Nature of the assay: NCI In Vivo Anticancer Drug Screen. Data for tumor model P388 Leukemia (intraperitoneal) in CD2F1 (CDF1) mice. Conditions: endpoint: median survival time, higher = longer survival. In a few lines: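 Mice carrying the transplanted tumor received test compound or vehicle. Survival was recorded in each group, and the value is the treated-group measurement divided by that of the vehicle-treated control group.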

The mark [1] stands for this setting: dose: 50.0 mg/kg/injection, schedule: Q01DX005 (ip), vehicle: saline with Tween-80.
Where [2] appears, read: dose: 100.0 mg/kg/injection, schedule: Q01DX005 (ip), vehicle: saline with Tween-80.
Where [3] appears, read: dose: 50.0 mg/kg/injection, schedule: Q01DX009 (ip), vehicle: Klucel (hydroxypropylcellulose) (HPC).
Where [4] appears, read: dose: 100.0 mg/kg/injection, schedule: Q01DX009 (ip), vehicle: Klucel (hydroxypropylcellulose) (HPC).
[5] abbreviates: dose: 200.0 mg/kg/injection, schedule: Q01DX009 (ip), vehicle: Klucel (hydroxypropylcellulose) (HPC).
Setting [6] is: dose: 50.0 mg/kg/injection, schedule: Q01DX009 (ip), vehicle: saline.
Where [7] appears, read: dose: 100.0 mg/kg/injection, schedule: Q01DX009 (ip), vehicle: saline.
[8] abbreviates: dose: 200.0 mg/kg/injection, schedule: Q01DX009 (ip), vehicle: saline.
[9] abbreviates: dose: 50.0 mg/kg/injection, schedule: Q01DX005 (ip), vehicle: Klucel (hydroxypropylcellulose) (HPC).
Where [10] appears, read: dose: 100.0 mg/kg/injection, schedule: Q01DX005 (ip), vehicle: Klucel (hydroxypropylcellulose) (HPC).
The mark [11] stands for this setting: dose: 200.0 mg/kg/injection, schedule: Q01DX005 (ip), vehicle: Klucel (hydroxypropylcellulose) (HPC).
Setting [12] is: dose: 50.0 mg/kg/injection, schedule: Q01DX009 (ip), vehicle: saline with Tween-80.
[13] abbreviates: dose: 100.0 mg/kg/injection, schedule: Q01DX009 (ip), vehicle: saline with Tween-80.
Setting [14] is: dose: 200.0 mg/kg/injection, schedule: Q01DX009 (ip), vehicle: saline with Tween-80.
Where [15] appears, read: dose: 400.0 mg/kg/injection, schedule: Q01DX009 (ip), vehicle: saline with Tween-80.

SMILES strings stand for the structures. Several values for one entry are separate records, joined by “and”; a condition that tells them apart may be missing. Equal values may be shown once. Toxic doses and inconclusive results are not listed. Square brackets hold non-standard residues; d marks the D form. Peptide text beside a SMILES is read from it. * marks the point of attachment. ξ: configuration not given here. ξF = NC(Cc1ccccc1)C(=O)O; Cbz = O=C(OCc1ccccc1)*

Turning to `C=C(CN(C)C)C(=O)c1ccccc1C`, the T/C (dose: 0.78 mg/kg/injection, schedule: Q01DX005 (ip), vehicle: saline) is 102 % of control; the T/C (dose: 1.56 mg/kg/injection, schedule: Q01DX005 (ip), vehicle: saline) is 98 % of control; the T/C (dose: 3.12 mg/kg/injection, schedule: Q01DX005 (ip), vehicle: saline) was 94 % of control; the T/C (dose: 6.25 mg/kg/injection, schedule: Q01DX005 (ip), vehicle: suspension in saline) was 108 % of control.
Take `Cc1nc2ccccc2n(CC2CCCN3CCCC[C@H]23)c1=O` (stereo not given in full): the T/C is 97 % of control under setting [1] and 101 % of control under setting [2].
For `CC(C)CC(NC(=O)CNC(=O)CN)C(=O)O` (stereo not given), the T/C was 102 % of control (dose: 60.0 mg/kg/injection, schedule: Q01DX005 (ip), vehicle: saline); 99 % of control (dose: 120.0 mg/kg/injection, schedule: Q01DX005 (ip), vehicle: saline); 106 % of control (dose: 240.0 mg/kg/injection, schedule: Q01DX005 (ip), vehicle: saline).
`CN(C)c1ccc(C(O)Cc2ccc3ccccc3n2)cc1` (stereo not given): the T/C is 113 % of control under setting [3], 92 % of control under setting [4] and 92 % of control under setting [5].
With `CSc1ccc(NC(=O)Nc2nccs2)cc1`, the T/C was 95 % of control (dose: 100.0 mg/kg/injection, schedule: Q04DX003 (ip), vehicle: saline with Tween-80); 100 % of control (dose: 200.0 mg/kg/injection, schedule: Q04DX003 (ip), vehicle: saline with Tween-80); 90 % of control (dose: 400.0 mg/kg/injection, schedule: Q04DX003 (ip), vehicle: saline with Tween-80).
For the compound `CCn1c(=O)c2c(N(C)C)snc2n(CC)c1=O`, the T/C is, setting by setting: under setting [6], 96 % of control; under setting [7], 107 % of control; under setting [8], 110 % of control.
For the compound `CC(=O)OCC1OC(n2cnc3c(Cl)nc(Cl)nc32)C(OC(C)=O)C1OC(C)=O` (stereo not given), the T/C reads like this: under setting [9], 102 % of control; under setting [10], 102 % of control; under setting [11], 115 % of control.
As for `Cc1ccc(NC(=O)Oc2ccc(F)cc2)c([N+](=O)[O-])c1`, the T/C was 96 % of control under setting [12], 95 % of control under setting [13] and 88 % of control under setting [14].
Regarding `COC(=O)C1(C(=O)O)ON1C(C)(C)C` (stereo not given), the T/C under setting [9] is 100 % of control, the T/C under setting [10] is 100 % of control and the T/C under setting [11] was 99 % of control.
As for `COc1cc2c(cc1OC)[C@H]1C(=O)c3cc4c(cc3[C@H]1N(C)C2=O)OCO4`, the T/C is 94 % of control (dose: 12.5 mg/kg/injection, schedule: Q01DX005 (ip), vehicle: distilled water + Tween-80); 96 % of control (dose: 25.0 mg/kg/injection, schedule: Q01DX005 (ip), vehicle: distilled water + Tween-80); 91 % of control (dose: 50.0 mg/kg/injection, schedule: Q01DX005 (ip), vehicle: distilled water + Tween-80).
Take `CCCC[P+](CCCC)(CCCC)CC(=O)O`: the T/C is, setting by setting: (dose: 25.0 mg/kg/injection, schedule: Q01DX009 (ip), vehicle: saline with Tween-80) 97 % of control; under setting [12], 100 % of control; under setting [13], 95 % of control.
Take `COc1ccc(CNCCNCc2ccc(OC)cc2)cc1`: the T/C was 93 % of control (dose: 50.0 mg/kg/injection, schedule: Q01DX001 (ip), vehicle: Klucel (hydroxypropylcellulose) (HPC)); 93 % of control (dose: 100.0 mg/kg/injection, schedule: Q01DX001 (ip), vehicle: Klucel (hydroxypropylcellulose) (HPC)); 90 % of control (dose: 200.0 mg/kg/injection, schedule: Q01DX001 (ip), vehicle: Klucel (hydroxypropylcellulose) (HPC)).
`O=C(O)CNC(=O)CNC(=O)C(Cc1ccccc1)NC(=O)OCc1ccccc1` (stereo not drawn) (Cbz-[ξF]-Gly-Gly-OH): the T/C runs as follows: under setting [1], 100 % of control; under setting [2], 99 % of control; (dose: 200.0 mg/kg/injection, schedule: Q01DX005 (ip), vehicle: saline with Tween-80) 91 % of control.
On to `CC(C)C[NH-].CC(C)C[NH-].[Cl][Pt+2]([Cl])([Cl])[Cl]`, for which the T/C is, setting by setting: (dose: 5.56 mg/kg/injection, schedule: Q01DX009 (ip), vehicle: saline with Tween-80) 169 % of control; (dose: 8.33 mg/kg/injection, schedule: Q01DX009 (ip), vehicle: saline with Tween-80) 166 % of control; (dose: 12.5 mg/kg/injection, schedule: Q01DX009 (ip), vehicle: saline with Tween-80) 166 % of control and 181 % of control.
With `O=S(=O)(O)c1cc(N=C=S)ccc1/C=C/c1ccc(N=C=S)cc1S(=O)(=O)O`, for the setting “dose: 25.0 mg/kg/injection, schedule: Q01DX005 (ip), vehicle: saline”, the T/C was 108 % of control and 110 % of control.
Turning to `BrC1C2CC/C=C\CCC12` (stereo not given), the T/C is 100 % of control (dose: 60.0 mg/kg/injection, schedule: Q01DX005 (ip), vehicle: saline with Tween-80); 104 % of control (dose: 120.0 mg/kg/injection, schedule: Q01DX005 (ip), vehicle: saline with Tween-80); 104 % of control (dose: 240.0 mg/kg/injection, schedule: Q01DX005 (ip), vehicle: saline with Tween-80).
Regarding `C/C(=N/NC(=O)c1ccccc1)c1ccccc1O`, the T/C was 104 % of control under setting [12], 100 % of control under setting [13], 104 % of control under setting [14] and 107 % of control under setting [15].
In the case of `Cn1cnc([N+](=O)[O-])c1Sc1ccncc1S(N)(=O)=O`, the T/C was 118 % of control under setting [9], 102 % of control under setting [10] and 108 % of control under setting [11].
`Cn1nc([N+](=O)[O-])nc1-c1ccccc1`: the T/C under setting [12] was 106 % of control, the T/C under setting [13] was 98 % of control, the T/C under setting [14] is 107 % of control and the T/C under setting [15] is 107 % of control.
Consider `O=C1C(Cl)=C(NCCC2CCCN3CCCCC23)C(=O)c2ccccc21` (stereo not given), for which the T/C runs as follows: (dose: 12.5 mg/kg/injection, schedule: Q01DX005 (ip), vehicle: Klucel (hydroxypropylcellulose) (HPC)) 99 % of control and 101 % of control and 93 % of control; (dose: 25.0 mg/kg/injection, schedule: Q01DX005 (ip), vehicle: Klucel (hydroxypropylcellulose) (HPC)) 98 % of control and 99 % of control and 97 % of control; under setting [10], 109 % of control and 111 % of control.
Consider `CC1(C)CC(N=[N+]=[N-])CC(C)(C)N1O`, for which the T/C (dose: 100.0 mg/kg/injection, schedule: Q04DX003 (ip), vehicle: Klucel (hydroxypropylcellulose) (HPC)) was 100 % of control.
Regarding `O=P(N1CC=CCC1)(N1CC1)N1CC1`, the T/C (dose: 4.4 mg/kg/injection, schedule: Q04DX003 (ip), vehicle: saline) was 118 % of control; the T/C (dose: 5.56 mg/kg/injection, schedule: Q01DX009 (ip), vehicle: saline) was 154 % of control; the T/C (dose: 6.6 mg/kg/injection, schedule: Q04DX003 (ip), vehicle: saline) was 113 % of control; the T/C (dose: 8.33 mg/kg/injection, schedule: Q01DX009 (ip), vehicle: saline) was 209 % of control; the T/C (dose: 10.0 mg/kg/injection, schedule: Q04DX003 (ip), vehicle: saline) is 118 % of control.
As to `CCCCCCCCCc1cc(=O)n(-c2ccc(C(=O)OCC)cc2)n1C`, the T/C is, setting by setting: under setting [3], 104 % of control; under setting [4], 90 % of control; under setting [5], 93 % of control.
With `CC(C)(CO)NC(=O)c1ccc(Br)cc1`, the T/C is 100 % of control (dose: 25.0 mg/kg/injection, schedule: Q01DX009 (ip), vehicle: other); 100 % of control (dose: 50.0 mg/kg/injection, schedule: Q01DX009 (ip), vehicle: other); 104 % of control (dose: 100.0 mg/kg/injection, schedule: Q01DX009 (ip), vehicle: other); 100 % of control (dose: 200.0 mg/kg/injection, schedule: Q01DX009 (ip), vehicle: other); 104 % of control (dose: 400.0 mg/kg/injection, schedule: Q01DX009 (ip), vehicle: other).
Regarding `CCCCCCCCCCC(CCCCCCCCCC)c1ccccc1`, the T/C reads like this: (dose: 75.0 mg/kg/injection, schedule: Q01DX001 (ip), vehicle: saline sonified) 91 % of control; (dose: 150.0 mg/kg/injection, schedule: Q01DX001 (ip), vehicle: saline sonified) 95 % of control; (dose: 300.0 mg/kg/injection, schedule: Q01DX001 (ip), vehicle: saline sonified) 95 % of control.
In the case of `CN1C2CCC1C(CCl)C(O)C2` (stereo not given), the T/C by setting is: under setting [6], 92 % of control; under setting [7], 88 % of control; under setting [8], 88 % of control.

The values are drawn from PubChem BioAssay AID330 (DTP/NCI, 2004).
